Tested on: Hedgehog signalling pathway
Assay: Gli-reporter NIH3T3 luciferase assay (Hedgehog pathway inhibition)
Assay type: cell-based
Details: NIH3T3; Gli-reporter NIH-3T3 cells, recombinant mouse sonic hedgehog, 24 hours, luminescence; read-out: Category (Hedgehog pathway inhibition activity, IC50)
Protocol: In vitro biological evaluation of compounds of the invention was carried out using the procedure detailed below. The procedure provides activity data for the compounds of the invention against the Hedgehog signalling pathway. The activity is represented as IC50 values in Table 12 below.
The Gli-reporter NIH3T3 cell line (BPS Biosciences) was grown according to the suppliers recommendations. Briefly, cells were maintained in growth medium (DMEM supplemented with 10% calf serum, 1% Penicillin/Streptomycin, and 500 µg/mL of Geneticin) and grown at 37° C., 5% CO2. In order to passage cells they were first rinsed with phosphate buffered saline before the addition of 0.05% Trypsin/EDTA. Fresh growth media was added and the cells were transferred to a centrifuge tube, spun and resuspended at an appropriate cell density.
Gli-reporter NIH-3T3 cells were seeded at 20,000 cells/well into 96 well, poly-D-lysine coated white clear bottomed full area TC plates in growth media (without geneticin). Three wells were left with just media as cell free controls. Cells were then incubated for 24 hours at 37° C. in a 5% CO2.
Serial dilutions of the test compounds were prepared in 100% DMSO. 10 μl of compound or DMSO from each well was pipetted into a sterile, 0.5 ml deep well conical bottomed 96 well plate (intermediate plate). 190 μl of warmed assay media (Opti-MEM supplemented with 0.5% calf serum, 1% non-essential amino acids, 1 mM sodium pyruvate, 10 mM HEPES, 1% penicillin/Streptomycin) was then added to each well and mixed five times at 180 μl by electronic pipette to ensure homogeneity of the compound solution. This 1:20 dilution gives a top concentration of 50 μM in 5% DMSO, 95% assay media. 10 μl was pipetted from each well of the intermediate plate into a second deep well sterile plate. 490 μl of warm assay media was then added to each well and mixed five times at 300 μl. This gives a final top concentration of 1 μM in 0.1% DMSO.
After the 24 hour incubation, media was carefully removed by pipette and replaced with 45 μl of compound dilutions in triplicate. This was incubated for one hour at 37° C. in a 5% CO2. After an hour, 5 μl 10 μg/mL recombinant mouse sonic hedgehog (R&D Systems) was added to each well and the plates were incubated for a further 24 hours at 37° C., 5% CO2.
After 24 hours, plates were removed from the incubator and left to acclimatise to room temperature for 20 minutes. 50 μl of OneGLO assay reagent (Promega) was then added to each well and the plates gently shaken for a further 30 minutes. Plates were then read for luminescence on the EnVision plate reader (PerkinElmer).

Compound	IC50 [nM]
CN(Cc1ccc(F)cc1C(F)(F)F)C1CCCN(c2nnc(-c3ccnn3C)c3ccccc23)C1 (stereo not shown) [Example 54, N-[[4-fluoro-2-(trifluoromethyl)phenyl]methyl]-N-methyl-1-[4-(2-methylpyrazol-3-yl)phthalazin-1-yl]piperidin-3-amine]	200 to 2000
CN(Cc1ccc(F)cc1C(F)(F)F)C1CCN(c2nnc(-c3ccnn3C)c3ccccc23)C1 (stereo not shown) [Example 55, N-[[4-fluoro-2-(trifluoromethyl)phenyl]methyl]-N-methyl-1-[4-(2-methylpyrazol-3-yl)phthalazin-1-yl]pyrrolidin-3-amine]	10 to 200
Cn1nccc1-c1nnc(N2CCC(N(Cc3ccc(F)cc3C(F)(F)F)C(=O)C(F)(F)F)CC2)c2ccccc12 [Example 56, 2,2,2-trifluoro-N-[[4-fluoro-2-(trifluoromethyl)phenyl]methyl]-N-[1-[4-(2-methylpyrazol-3-yl)phthalazin-1-yl]-4-piperidyl]acetamide]	10 to 200
Cn1nccc1-c1nnc(N2CCC(NCc3ccccc3)CC2)c2ccccc12 [Example 57, N-benzyl-1-[4-(2-methylpyrazol-3-yl)phthalazin-1-yl]piperidin-4-amine]	200 to 2000
COc1nnc(N2CCC(NCc3ccc(F)cc3C(F)(F)F)CC2)c2ccccc12 [Example 58, N-[[4-fluoro-2-(trifluoromethyl)phenyl]methyl]-1-(4-methoxyphthalazin-1-yl)piperidin-4-amine]	200 to 2000
CN(Cc1ccccc1)C1CCN(c2nnc(-c3ccnn3C)c3ccccc23)CC1 [Example 59, N-benzyl-N-methyl-1-[4-(2-methylpyrazol-3-yl)phthalazin-1-yl]piperidin-4-amine]	10 to 200
CN(Cc1ccc(C#N)cc1)C1CCN(c2nnc(-c3ccnn3C)c3ccccc23)CC1 [Example 60, 4-[[methyl-[1-[4-(2-methylpyrazol-3-yl)phthalazin-1-yl]-4-piperidyl]amino]methyl]benzonitrile]	10 to 200
COc1ccccc1CN(C)C1CCN(c2nnc(-c3ccnn3C)c3ccccc23)CC1 [Example 61, N-[(2-methoxyphenyl)methyl]-N-methyl-1-[4-(2-methylpyrazol-3-yl)phthalazin-1-yl]piperidin-4-amine]	200 to 2000
COc1cccc(CN(C)C2CCN(c3nnc(-c4ccnn4C)c4ccccc34)CC2)c1 [Example 62, N-[(3-methoxyphenyl)methyl]-N-methyl-1-[4-(2-methylpyrazol-3-yl)phthalazin-1-yl]piperidin-4-amine]	10 to 200
COc1ccc(CN(C)C2CCN(c3nnc(-c4ccnn4C)c4ccccc34)CC2)cc1 [Example 63, (4-methoxyphenyl)methyl-methyl-[1-[4-(2-methylpyrazol-3-yl)phthalazin-1-yl]-4-piperidyl]ammonium]	200 to 2000
CN(Cc1ccccc1F)C1CCN(c2nnc(-c3ccnn3C)c3ccccc23)CC1 [Example 64, (2-fluorophenyl)methyl-methyl-[1-[4-(2-methylpyrazol-3-yl)phthalazin-1-yl]-4-piperidyl]ammonium]	10 to 200
CN(Cc1cccc(F)c1)C1CCN(c2nnc(-c3ccnn3C)c3ccccc23)CC1 [Example 65, (3-fluorophenyl)methyl-methyl-[1-[4-(2-methylpyrazol-3-yl)phthalazin-1-yl]-4-piperidyl]ammonium]	10 to 200
Cn1nccc1-c1nnc(N2CCC(NC(=O)OC(C)(C)C)CC2)c2ccccc12 [Example 66, tert-butyl N-[1-[4-(2-methylpyrazol-3-yl)phthalazin-1-yl]-4-piperidyl]carbamate]	10 to 200

Other lines, results leading:

IC50 [nM]	Compound
10 to 200	CN(Cc1ccc(F)cc1F)C1CCN(c2nnc(-c3ccnn3C)c3ccccc23)CC1 [Example 67, N-[(2,4-difluorophenyl)methyl]-N-methyl-1-[4-(2-methylpyrazol-3-yl)phthalazin-1-yl]piperidin-4-amine]
200 to 2000	Cn1nccc1-c1nnc(N2CCC(NCc3ccc(C#N)cc3)CC2)c2ccccc12 [Example 68, 4-[[[1-[4-(2-methylpyrazol-3-yl)phthalazin-1-yl]-4-piperidyl]amino]methyl]benzonitrile]
200 to 2000	COc1ccccc1CNC1CCN(c2nnc(-c3ccnn3C)c3ccccc23)CC1 [Example 69, N-[(2-methoxyphenyl)methyl]-1-[4-(2-methylpyrazol-3-yl)phthalazin-1-yl]piperidin-4-amine]
10 to 200	COc1cccc(CNC2CCN(c3nnc(-c4ccnn4C)c4ccccc34)CC2)c1 [Example 70, N-[(3-methoxyphenyl)methyl]-1-[4-(2-methylpyrazol-3-yl)phthalazin-1-yl]piperidin-4-amine]
200 to 2000	COc1ccc(CNC2CCN(c3nnc(-c4ccnn4C)c4ccccc34)CC2)cc1 [Example 71, N-[(4-methoxyphenyl)methyl]-1-[4-(2-methylpyrazol-3-yl)phthalazin-1-yl]piperidin-4-amine]
10 to 200	Cn1nccc1-c1nnc(N2CCC(NCc3ccccc3F)CC2)c2ccccc12 [Example 72, N-[(2-fluorophenyl)methyl]-1-[4-(2-methylpyrazol-3-yl)phthalazin-1-yl]piperidin-4-amine]
10 to 200	Cn1nccc1-c1nnc(N2CCC(NCc3cccc(F)c3)CC2)c2ccccc12 [Example 73, N-[(3-fluorophenyl)methyl]-1-[4-(2-methylpyrazol-3-yl)phthalazin-1-yl]piperidin-4-amine]
200 to 2000	Cn1nccc1-c1nnc(N2CCC(NCc3ccc(F)cc3F)CC2)c2ccccc12 [Example 74, N-[(2,4-difluorophenyl)methyl]-1-[4-(2-methylpyrazol-3-yl)phthalazin-1-yl]piperidin-4-amine]
200 to 2000	Cn1nccc1-c1nnc(N2CCC(NCc3ccc(F)cc3)CC2)c2ccccc12 [Example 75, N-[(4-fluorophenyl)methyl]-1-[4-(2-methylpyrazol-3-yl)phthalazin-1-yl]piperidin-4-amine]
10 to 200	Cn1nccc1-c1nnc(N2CCC(NCc3ccc(F)nc3F)CC2)c2ccccc12 [Example 76, N-[(2,6-difluoro-3-pyridyl)methyl]-1-[4-(2-methylpyrazol-3-yl)phthalazin-1-yl]piperidin-4-amine]
10 to 200	CC(=O)N(Cc1ccc(F)cc1C(F)(F)F)C1CCN(c2nnc(-c3ccnn3C)c3ccccc23)CC1 [Example 77, N-[[4-fluoro-2-(trifluoromethyl)phenyl]methyl]-N-[1-[4-(2-methylpyrazol-3-yl)phthalazin-1-yl]-4-piperidyl]acetamide]
< 10	CN(Cc1ccc(F)cc1C(F)(F)F)C1CCN(c2nnc(-c3ccnn3C)c3ccccc23)CC1 [Example 78, N-[[4-fluoro-2-(trifluoromethyl)phenyl]methyl]-N-methyl-1-[4-(2-methylpyrazol-3-yl)phthalazin-1-yl]piperidin-4-amine]
< 10	Cn1nccc1-c1nnc(N2CCC(NCc3ccc(F)cc3C(F)(F)F)CC2)c2ccccc12 [Example 79, N-[[4-fluoro-2-(trifluoromethyl)phenyl]methyl]-1-[4-(2-methylpyrazol-3-yl)phthalazin-1-yl]piperidin-4-amine]

Same assay, conditions: NIH3T3; Gli-reporter NIH-3T3 cells, recombinant mouse sonic hedgehog, 24 hours, luminescence; read-out: Gli Luc nM (IC50)

IC50 [nM]	Compound
7.85	Cn1nccc1-c1nnc(N2CCC(NCc3ccc(F)cc3C(F)(F)F)CC2)c2ccccc12 [Example 79, N-[[4-fluoro-2-(trifluoromethyl)phenyl]methyl]-1-[4-(2-methylpyrazol-3-yl)phthalazin-1-yl]piperidin-4-amine]

Same assay, conditions: NIH3T3; Gli-reporter NIH-3T3 cells, recombinant mouse sonic hedgehog, 24 hours, luminescence; read-out: Gli luc IC50

IC50 [nM]	Compound
< 10	CN(C(=O)Nc1ccc(F)cc1C(F)(F)F)C1CCN(c2nnc(-c3ccnn3C)c3ncccc23)CC1 [Example 80, 3-[4-fluoro-2-(trifluoromethyl)phenyl]-1-methyl-1-[1-[8-(2-methylpyrazol-3-yl)pyrido[2,3-d]pyridazin-5-yl]-4-piperidyl]urea]
< 10	Cc1c(-c2ccnn2C)nnc(N2CCC(N(C)Cc3ccccc3[N+](=O)[O-])CC2)c1C [Example 81, 1-[4,5-dimethyl-6-(2-methylpyrazol-3-yl)pyridazin-3-yl]-N-methyl-N-[(2-nitrophenyl)methyl]piperidin-4-amine]
10 to 200	Cc1c(-c2ccnn2C)nnc(N2CCC(N(C)Cc3ccccc3C(C)C)CC2)c1C [Example 82, 1-[4,5-dimethyl-6-(2-methylpyrazol-3-yl)pyridazin-3-yl]-N-[(2-isopropylphenyl)methyl]-N-methyl-piperidin-4-amine]
10 to 200	Cc1c(-c2ccnn2C)nnc(N2CCC(N(C)Cc3cccc(OC(F)(F)F)c3)CC2)c1C [Example 83, 1-[4,5-dimethyl-6-(2-methylpyrazol-3-yl)pyridazin-3-yl]-N-methyl-N-[[3-(trifluoromethoxy)phenyl]methyl]piperidin-4-amine]

Source: patent US9579319B2 (Redx Pharma PLC, priority 2013, dated 2017)
